Experimental data published in US20060189546A1, “Compounds for treating autoimmune and demyelinating diseases” (priority 2005, published 2006).
pIC50: −log10 of the molar value. Read-outs that look alike come from different tables or passages of the source.

Columns and labels:
[1] = tested on: B-lymphocyte cells; assay: Cell Proliferation, B-Cell + LPS ([3H]thymidine incorporation); assay type: cell-based, balb/c mice; conditions: Mus musculus
Method: B-lymphocyte cells isolated from the spleen of balb/c mice weighing 17±1 g were used. Test compound and/or vehicle were incubated with the cells (1.5×10^6/ml) in the presence of 10 μg/ml lipopolysaccharide (LPS) in AIM-V medium pH 7.4 at 37° C. for 24 hours. [^3H]Thymidine (120 nM) was then added for an additional overnight incubation period. Thymidine incorporation was assessed by liquid scintillation counting.
(§1) Test compound-induced suppression of cell proliferation by 50 percent or more (≧50%) relative to vehicle control response indicates significant inhibitory activity.

[2] = tested on: T-lymphocyte cells; assay: Cell Proliferation, T-Cell + Con A ([3H]thymidine incorporation); assay type: cell-based, balb/c mice; conditions: Mus musculus
Method: T-lymphocyte cells isolated from thymus of balb/c mice weighing 17±1 g were used. Test compound and/or vehicle is incubated with the cells (4×10^6/ml) in the presence of 3 μg/mL Concanavalin A (Con A) in AIM-V medium pH 7.4 at 37° C. for 24 hours. [^3H]Thymidine (120 nM) was then added for an additional overnight incubation period. Thymidine incorporation was assessed by liquid scintillation counting.
as §1

[3] = tested on: IL-10; assay: Mediator release, IL-10 (Con A-stimulated PBML, sandwich ELISA); assay type: cell-based; conditions: Homo sapiens, IL-10 release
Method: (§2) In this experiment, test compound and/or vehicle were preincubated with human peripheral blood mononuclear leukocyte (PBML, 1×10^6/ml) in RPMI buffer pH 7.4 for 2 hours. Concanavalin A (Con A, 20 μg/ml) was then added to stimulate the cells overnight in 5% CO2 at 37° C. IL-4 and IL-10 cytokine levels in the conditioned medium were then quantified using a sandwich ELISA kit. Compounds were screened at 10, 1, 0.1, 0.01 and 0.001 μM.

[4] = tested on: IL-4; assay: Mediator release, IL-4 (Con A-stimulated PBML, sandwich ELISA); assay type: cell-based; conditions: Homo sapiens
Method: as §2

[5] = tested on: HCT116 cell line; assay: GI50 concentration in HCT116 cells; assay type: cell-based; conditions: Homo sapiens, HCT-116
[6] = human, body surface area, as free base; cited from earlier work
[7] = tested on: Experimental Autoimmune Encephalomyelitis (EAE); assay: Acute EAE, daily dosing for 15 days (Example 5); assay type: in vivo, guinea pigs
Method: Accordingly, three randomized cohorts of guinea pigs with EAE induced by the method of Example 2, were treated, respectively, with 6 mg/kg of Symadex™ (full salt hydrate) and 0.35 mg/kg of mitoxantrone. Animals were treated daily, by intraperitoneal injection, for 15 days, starting on day 7 post immunization. Controls were treated with vehicle. We reasoned that 15 consecutive, 6 mg/kg doses of Symadex™ would represent a level of drug exposure that would be commensurate with the “20 mg/kg every 72 hours” regimen in Example 4 and consistent with a mid level exposure between the 20 mg/kg and the 40 mg/kg schedule given weekly, in Example 2. The mitoxantrone dose was selected to reflect a typical high dose given to rats or mice by daily dosing in the prior art, but allometrically scaled to the guinea pig.

[8] = tested on: Experimental Autoimmune Encephalomyelitis (EAE); assay: Chronic EAE, two doses 72 hours apart (Example 4); assay type: in vivo, guinea pig; conditions: 20 mg/kg i.p., 2 doses 72 hours apart
Method: In order to test the possibility that a more frequent dosing schedule would offer a more rapid resolution of disease symptoms, an experiment was performed to match the dosing cycle to the observed periodicity of response. Accordingly, the method of Experiment 2 was applied to a cohort of animals and controls, which were allowed to reach the chronic phase of disease at 30 days post immunization. Six animals with a disease score of 1 were selected and half were treated with 20 mg/kg Symadex™ administered intraperitoneally. Two dose were given 72 hours apart to 3 animals. Three animals served as vehicle controls.

[9] = tested on: Experimental Autoimmune Encephalomyelitis (EAE); assay type: in vivo, guinea pig
Method: Following disease induction, as previously described, the animals were randomized into 5 five cohorts, one vehicle control and 4 treatment cohorts. Animals in the treatment cohorts were administered study drug intraperitoneally at 20 mg/kg (Symadex™dihydrochloride trihydrate) once a week for 4, 6 and 8 weeks, with an additional cohort treated once a week for 4 weeks and observed for an additional 4 weeks of treatment with vehicle solution (saline) rather than with drug.
The only significant protocol deviation from the method of Example 2 was that the pool of immunized animals was culled of animals presenting with a disease severity greater than 2 and randomized so that the mean disease severity of each cohort was matched in the severity score range of 1 to 1.5. This measure was invoked in order to avoid the chance circumstance, observed in Example 2, that animal selected for treatment should start treatment with a more severe presentation than the corresponding vehicle controls.

[10] = B-cell, read-out: % Growth Inhibition
[11] = 1 nM, read-out: % Growth Inhibition
[12] = 10 nM, read-out: % Growth Inhibition
[13] = 0.1 μM, read-out: % Growth Inhibition
[14] = 1 μM, read-out: % Growth Inhibition
[15] = 10 μM, read-out: % Growth Inhibition
[16] = necropsy after 15 daily doses, Symadex 6 mg/kg, mitoxantrone 0.35 mg/kg

## CCN(CC)CCNc1ccc2ncn3c4ccc(O)cc4c(=O)c1c23 [Symadex™, 5-[[(diethylamino)ethyl]amino]-8-hydroxyimidazo[4,5,1-de]-acridine-6-one]
[1]; [10]
  inhibition at 1 µM: 101%
  inhibition at 10 µM: 103%
[1]; B-Cell + LPS
  pIC50: 7.42
[1]; B-Cell + LPS, 1 nM, read-out: % Growth Inhibition
  inhibition at 0.001 µM: 0%
[1]; B-Cell + LPS, 10 nM, read-out: % Growth Inhibition
  inhibition at 0.01 µM: 38%
[1]; B-Cell + LPS, 0.1 μM, read-out: % Growth Inhibition
  inhibition at 0.1 µM: 80%
[2]; T-Cell + Con A
  pIC50: 7.85
[2]; T-Cell + Con A, 1 nM, read-out: % Growth Inhibition
  inhibition at 0.001 µM: 10%
[2]; T-Cell + Con A, 10 nM, read-out: % Growth Inhibition
  inhibition at 0.01 µM: 44%
[2]; T-Cell + Con A, 0.1 μM, read-out: % Growth Inhibition
  inhibition at 0.1 µM: 82%
[2]; read-out: % Growth Inhibition
  inhibition at 1 µM: 103%
  inhibition at 10 µM: 104%
[3]
  pIC50: 5.92
[3]; [11]
  inhibition at 0.001 µM: 1%
[3]; [12]
  inhibition at 0.01 µM: 16%
[3]; [13]
  inhibition at 0.1 µM: 16%
[3]; [14]
  inhibition at 1 µM: 39%
[3]; [15]
  inhibition at 10 µM: 99%
[4]; [11]
  % inhibition of IL-4 release at 0.001 µM: 8%
[4]; [12]
  % inhibition of IL-4 release at 0.01 µM: 7%
[4]; [13]
  % inhibition of IL-4 release at 0.1 µM: 2%
[4]; [14]
  % inhibition of IL-4 release at 1 µM: -9%
[4]; [15]
  % inhibition of IL-4 release at 10 µM: 105%
[4]; IL-4 release
  pIC50: 5.48
[5]
  GI50: 0.21 µM
[6]
  safe and well-tolerated single dose: 540 mg/m^2
[7]; daily i.p. for 15 days from day 7, Symadex 6 mg/kg, mitoxantrone 0.35 mg/kg
  clinical score (neurological impairment): the initial rise in neurological impairment is arrested
[7]; guinea pig, in vivo
  weight gain profile vs vehicle controls, statistical significance: did not show statistical significance
[7]; [16]
  reduction of meningeal inflammation (M) pathology score: does not
  reduction of perivascular cuffing (P), myelitis (E) and demyelination (D) pathology scores: statistically significant differences (p value<0.05) from control
[8]
  clinical scores: reversed the progression of disease and restored baseline clinical scores with just 2 doses
[9]; 20 mg/kg i.p. once a week for 4 weeks, then 4 weeks vehicle
  clinical scores after drug withdrawal: remained in stable disease at the time of discontinuation
[9]; 20 mg/kg i.p. once a week, 4-week treatment cycle, starting mean 1.3
  mean clinical severity score: 0.7
[9]; 20 mg/kg i.p. once a week, 6 week treatment course, control 1.3
  mean severity score: 0.3
[9]; 20 mg/kg i.p., 8 consecutive weekly doses
  clinical scores: converges on baseline at the end of the treatment course
